How the values were obtained:
[1] = target: T1, D(4) dopamine receptor (Homo sapiens, UniProt P21917); assay: In vitro ability to inhibit [3H]6b binding to human Dopamine receptor D4.4
T1 sequence (P21917 whole entry): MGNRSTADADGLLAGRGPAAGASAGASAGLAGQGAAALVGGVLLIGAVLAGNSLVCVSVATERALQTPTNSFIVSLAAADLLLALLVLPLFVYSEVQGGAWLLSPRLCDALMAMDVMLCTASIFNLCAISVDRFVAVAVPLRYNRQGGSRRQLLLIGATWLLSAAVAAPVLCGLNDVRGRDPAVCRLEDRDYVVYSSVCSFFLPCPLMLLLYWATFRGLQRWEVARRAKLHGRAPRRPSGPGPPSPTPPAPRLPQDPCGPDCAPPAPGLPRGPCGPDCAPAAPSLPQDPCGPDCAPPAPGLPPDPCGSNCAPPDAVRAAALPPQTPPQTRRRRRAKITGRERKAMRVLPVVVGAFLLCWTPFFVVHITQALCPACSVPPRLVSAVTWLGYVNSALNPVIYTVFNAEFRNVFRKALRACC

[2] = target: T1, D(4) dopamine receptor; assay: Agonist activity was calculated in calcium flux assay using HEK293 cells co-transfected with human Dopamine receptor D4.4 and Galphaqo5; assay type: functional, cell-based
[3] = target: T1, D(4) dopamine receptor; assay: In vitro ability to inhibit [3H]spiperone binding to human Dopamine receptor D4.4
[4] = target: T2, D(4) dopamine receptor (Homo sapiens) (UniProt P21917); assay: Efficacy in calcium flux assay using HEK293 cells co-transfected with human Dopamine receptor D4.4 and G-alpha-qo5 relative to 10 uM dopamine; assay type: functional, cell-based
T2 sequence (whole entry): T1 sequence (P21917 whole entry)

[5] = target: T1, D(4) dopamine receptor; assay: In vitro ability to inhibit [3H]spiperone binding to human Dopamine receptor D4.4 allele

Compound	Ki [1]	EC50 [2]	Ki [3]	E [4]	Ki [5]
COc1ccc(N2CCN(CC(=O)Nc3cccc(C)c3)CC2)cc1	88.9 nM	> 10 µM	101 nM	–	–
COc1cccc(N2CCN(CC(=O)Nc3cccc(C)c3)CC2)c1	39.1 nM	> 10 µM	46 nM	–	–
Cc1cc(NC(=O)CN2CCN(c3ccc(Br)cc3C#N)CC2)ccc1Br	14 nM	> 10 µM	54.2 nM	–	–

Further molecules by falling Ki [1], results first:

Ki [1]	EC50 [2]	Ki [3]	E [4]	Ki [5]	Compound
90.7 nM	> 10 µM	61.9 nM	–	–	Cc1cccc(NC(=O)CN2CCN(c3ccc(F)cc3)CC2)c1
1.8 nM	0.0268 µM	–	60%	0.7 nM	COc1ccccc1N1CCN(CC(=O)Nc2cccc(C)c2)CC1
